Measurements as given in PMC5740381 (Antimicrobial Agents and Chemotherapy, 2017).
Like-named read-outs stand apart in the source and are kept apart here.

Experiments:
[1] = system: HCV subgenomic stable replicons containing proteases from genotypes 1 to 6; assay: Stable HCV replicon assay, several genotypes; assay type: cell-based; conditions: Hepatitis C virus, Huh-7, read-out: EC50, range over stable replicons
Text: Five of these nine cell lines have been described previously, including those transfected with genotypes 1a H77, 1b Con1, 3a, 4a, and 6a ([28]). […] The genotype 2b and 6e NS3 sequences were each synthetically constructed based on a consensus sequence derived from the alignment of 15 genotype 2b and 4 genotype 6e sequences, respectively. All replicon constructs were bicistronic subgenomic replicons similar to those described by Bartenschlager and coworkers, and the replicon cell lines were generated by introducing these constructs into cells of an Huh-7 human hepatoma-derived cell line ([50]). The inhibitory effect of the PIs on HCV replication in replicon cells was determined in Dulbecco's modified Eagle medium containing 5% fetal bovine serum with or without 40% human plasma (Bioreclamation, Westbury, NY). The EC50s were determined using nonlinear regression curve fitting as described previously ([33]).

[2] = system: HCV genotype 1a replicon cells; assay: Drug-resistant colony selection in replicon cells; assay type: cell-based, Hepatitis C virus
Text: (§1) . After approximately 3 weeks of treatment, the surviving replicon colonies in one plate for each selection condition were stained with crystal violet and counted, whereas approximately 20 to 30 colonies in a replicate plate or most of the colonies, if less than 20 colonies survived the selection, were picked and further expanded for genotyping. The expanded colonies were lysed in CellsDirect lysis buffer (Invitrogen, MA), and the NS3-coding region from each colony was amplified by reverse transcription-PCR and sequenced. For genotype 1a, 1b, 2a, and 5a colonies, the full-length NS3 sequence was determined, whereas for colonies of the chimeric replicon containing the N-terminal region of NS3 from genotype 2b, 3a, 4a, or 6a, the sequence encoding the NS3 N-terminal region was determined. We defined a substitution in a replicon to be an amino acid difference in a sequence from a posttreatment sample relative to the sequence of the corresponding untreated sample. For resistance selection studies, NS3 substitutions detected at the following amino acid positions associated with resistance to the HCV PI class in >2 colonies in each replicon selection are reported: 36, 43, 54, 55, 56, 80, 122, 155, 156, and 168. In addition, substitutions detected at other amino acid positions in the NS3 protease domain in >2 colonies in each replicon selection are also reported.
(§2) […]. The drug-resistant colonies were fixed and stained with crystal violet, and the number of colonies was determined.

[3] = system: HCV genotype 1b replicon cells; assay: Drug-resistant colony selection in replicon cells; assay type: cell-based, Hepatitis C virus
Text: as §1, §2

[4] = system: HCV replicons with genotype 1a patient proteases; assay: Transient replicon assay with proteases from HCV-infected patients; assay type: cell-based; conditions: Hepatitis C virus
Text: (§3) […]. Each of the NS3 gene sequences from genotypes 1, 2, and 4, with the exception of two genotype 2b sequences, was derived from serum or plasma from an HCV-infected patient by bulk PCR amplification, producing a population of sequences representing the viral quasispecies. Two genotype 2b sequences were synthesized based on the consensus sequences of the respective samples. One genotype 3a sequence was synthesized based on a consensus sequence from the sequences available in the Los Alamos HCV sequence database, and another genotype 3a sequence was a clonal sequence derived from a patient sample. The genotype 5a sequence (strain SA13) was synthesized based on the published sequence of the HCV isolate ([48]).
(§4) Transient replicons containing NS3 from clinical samples from HCV genotype 1a- and 1b-infected patients were described previously ([28]). For the transient replicons containing NS3/4A from samples from genotype 3a-infected patients, the first 251 amino acids of NS3 and the region encoding NS4A amino acids 21 to 32 (numbered relative to the NS4A coding region) from these HCV samples were cloned to replace the corresponding residues from the backbone of a genotype 1b Con1 shuttle vector. A genotype 1b Con1 transient replicon shuttle vector was also used to clone the region encoding the first 251 amino acids of NS3 from samples from genotype 4a- or 4d-infected patients in place of the corresponding region from HCV genotype 1b Con1.
(§5) For the analysis of NS3 sequences from patients, we defined a polymorphism to be an amino acid difference in the sequence of a baseline sample relative to the sequence of the appropriate HCV subtype reference sequence: genotype 1a H77 (GenBank accession number NC_004102), genotype 1b Con1 (GenBank accession number AJ238799), genotype 2a JFH-1 (GenBank accession number AB047639), genotype 2b HC-J8 (GenBank accession number D10988), genotype 3a S52 (GenBank accession number GU814263), genotype 4a ED43 (GenBank accession number GU814265), genotype 4d QC382 (GenBank accession number FJ462437), and genotype 5a SA13 (GenBank accession number AF064490). Polymorphisms were assessed at the following NS3 amino acid positions that are associated with resistance to the HCV PI class: 36, 43, 54, 55, 56, 80, 122, 155, 156, and 168. All DNA sequencing was performed by the Sanger sequencing method.

[5] = system: HCV replicons with genotype 3a patient proteases; assay: as above; assay type: cell-based; conditions: Hepatitis C virus, subtype 3a, no polymorphism, 2 samples
Text: as §3, §4, §5

[6] = system: HCV replicons with genotype 1b patient proteases; assay: as above; assay type: cell-based; conditions: Hepatitis C virus, subtype 1b, no polymorphism, 9 samples
Text: as §3, §4, §5

[7] = system: HCV replicons with genotype 4d patient proteases; assay: as above; assay type: cell-based; conditions: Hepatitis C virus, 96 h, subtype 4d, no polymorphism, 3 samples
Text: as §3, §4, §5

`CC(C)(C)[C@@H]1NC(=O)O[C@@H]2CCC[C@H]2OC/C=C/C(F)(F)c2nc3ccccc3nc2O[C@@H]2C[C@@H](C(=O)N[C@]3(C(=O)NS(=O)(=O)C4(C)CC4)C[C@H]3C(F)F)N(C2)C1=O` [Glecaprevir, (3aR,7S,10S,12R,21E,24aR)-7-tert-butyl-N-[(1R,2R)-2-(difluoromethyl)-1-{[(1-methylcyclopropyl)sulfonyl]carbamoyl}cyclopropyl]-20,20-difluoro-5,8-dioxo-2,3,3a,5,6,7,8,11,12,20,23,24a-dodecahydro-1H,10H-9,12-methanocyclopenta[18,19][1,10,17,3,6]trioxadiazacyclononadecino[11,12-b]quinoxaline-10-carboxamide] was tested. Which EC50 [1] did it give?
Its EC50 is 0.21 to 4.6 nM.

And the Colony survival ([2]; 10× EC50, about 3 weeks)?
The Colony survival was 0.043%.

And the Colony survival ([2]; 100× EC50)?
The Colony survival was 0.0029%.

And the Colony survival ([3]; 10× EC50, about 3 weeks)?
The Colony survival was 0.047%.

What about the Colony survival ([3]; 100× EC50) of the same molecule?
The Colony survival was 0.03%.

What about the EC50 ([4]; all genotype 1a clinical samples, read-out: Median EC50) of the same molecule?
The EC50 was 0.08 nM.

What about the EC50 ([4]; subtype 1a, Q80K, 5 samples, read-out: EC50 Median) of the same molecule?
The EC50 was 0.09 nM.

What about the EC50 ([4]; subtype 1a, Q80K, 5 samples, read-out: EC50 Range) of the same molecule?
The EC50 was 0.07 to 0.1 nM.

And the EC50 ([4]; subtype 1a, Q80N, 1 sample, read-out: EC50 Median)?
Its EC50 is 0.09 nM.

And the EC50 ([4]; subtype 1a, no NS3 polymorphism, 5 samples, read-out: EC50 Median)?
The EC50 was 0.06 nM.

And the EC50 ([4]; subtype 1a, no NS3 polymorphism, 5 samples, read-out: EC50 Range)?
Its EC50 is 0.05 to 0.12 nM.

And the EC50 ([5]; read-out: EC50 Median)?
Its EC50 is 2.3 nM.

And the EC50 ([5]; read-out: EC50 Range)?
The EC50 was 0.71 to 3.8 nM.

What about the EC50 ([6]; read-out: EC50 Median) of the same molecule?
Its EC50 is 0.29 nM.

And the EC50 ([6]; read-out: EC50 Range)?
Its EC50 is 0.2 to 0.68 nM.

What about the EC50 ([7]; read-out: EC50 Median) of the same molecule?
Its EC50 is 0.17 nM.

And the EC50 ([7]; read-out: EC50 Range)?
The EC50 was 0.13 to 0.25 nM.
